Test results from the NIST ThermoML archive (doi:10.1021/je700021f).

Assay: xn = mol fraction of the nth substance listed
Conditions: 101 kPa, Liquid, Pulse-echo method

CCCCCCCCCCl [1-chlorononane] + CCCCCCCCC
speed of sound [m/s]
Conditions	x2 = 0	x2 = 0.1	x2 = 0.3	x2 = 0.5	x2 = 0.7	x2 = 0.8	x2 = 0.85	x2 = 0.9
293.15 K	1297.2	1283.1	1268.5	1254.2	1243.5	1232.8	1231.8	1222.6
298.15 K	1278.2	1264.2	1249	1235	1223.5	1212.9	1211.9	1203.3
303.15 K	1259.5	1245.4	1229.8	1215.9	1203.6	1193	1192.1	1184.1
308.15 K	1240.9	1226.7	1210.6	1197	1183.9	1173.3	1172.4	1165
313.15 K	1222.5	1208.1	1191.7	1178.1	1164.3	1153.7	1152.8	1145.9
318.15 K	1204.3	1189.7	1172.8	1159.3	1144.9	1134.2	1133.4	1126.9
323.15 K	1186.3	1171.4	1154.1	1140.6	1125.6	1114.9	1114	1107.9
328.15 K	1168.4	1153.2	1135.6	1122	1106.5	1095.6	1094.7	1088.9
333.15 K	1150.7	1135.2	1117.1	1103.6	1087.5	1076.5	1075.5	1070
338.15 K	1133.2	1117.2	1098.9	1085.2	1068.7	1057.5	1056.4	1051.2
343.15 K	1115.9	1099.4	1080.7	1066.9	1050	1038.6	1037.4	1032.4
348.15 K	1098.8	1081.8	1062.7	1048.7	1031.5	1019.8	1018.5	1013.7
353.15 K	1081.9	1064.2	1044.9	1030.6	1013.1	1001.1	999.7	995
358.15 K	1065.1	1046.8	1027.2	1012.6	994.9	982.6	981	976.3
363.15 K	1048.5	1029.5	1009.6	994.7	976.8	964.2	962.4	957.8
368.15 K	1032.2	1012.3	992.2	976.9	958.9	945.8	943.9	939.2
373.15 K	1015.9	995.2	974.9	959.2	941.1	927.7	925.5	920.7
378.15 K	999.1	978.3	957.8	941.6	923.5	909.6	907.2	902.3
383.15 K	982.7	961.5	940.8	924.1	906	891.6	889	883.9
388.15 K	966.4	944.8	924	906.7	888.7	873.8	870.9	865.6
393.15 K	950.3	928.3	907.3	889.4	871.5	856.1	852.9	847.3
398.15 K	934.3	911.8	890.7	872.1	854.5	838.5	835	829.1
403.15 K	918.4	895.5	874.3	855	837.6	821	817.2	810.9
408.15 K	902.6	879.3	858	838	820.9	803.6	799.5	792.7
413.15 K	887	863.3	841.9	821.1	804.3	786.3	781.9	774.6
418.15 K	871.4	847.4	825.9	804.3	787.8	769.2	764.4	756.6
423.15 K	856	831.5	810	787.5	771.6	752.2	747	738.6
